Experimental data reported in article PMC10287695, “Non-covalent inhibitors of thioredoxin glutathione reductase with schistosomicidal activity in vivo” (Nature Communications, 2023).
Read-outs that look alike come from different tables or passages of the source. Marks after values point to notes of the source that are not given here.

Columns and labels:
[1] = molecular target: T1, Human TrxR1 (Homo sapiens, UniProt Q16881); assay: Human TrxR1 enzyme inhibition (DTNB reduction); format: biochemical; settings: for % inhibition: hsTrxR; for % inhibition / hsTrxR % inhibition: 15 minutes pre-incubation
T1 construct: made in house
T1 sequence (Q16881 1-499 isoform Q16881-5): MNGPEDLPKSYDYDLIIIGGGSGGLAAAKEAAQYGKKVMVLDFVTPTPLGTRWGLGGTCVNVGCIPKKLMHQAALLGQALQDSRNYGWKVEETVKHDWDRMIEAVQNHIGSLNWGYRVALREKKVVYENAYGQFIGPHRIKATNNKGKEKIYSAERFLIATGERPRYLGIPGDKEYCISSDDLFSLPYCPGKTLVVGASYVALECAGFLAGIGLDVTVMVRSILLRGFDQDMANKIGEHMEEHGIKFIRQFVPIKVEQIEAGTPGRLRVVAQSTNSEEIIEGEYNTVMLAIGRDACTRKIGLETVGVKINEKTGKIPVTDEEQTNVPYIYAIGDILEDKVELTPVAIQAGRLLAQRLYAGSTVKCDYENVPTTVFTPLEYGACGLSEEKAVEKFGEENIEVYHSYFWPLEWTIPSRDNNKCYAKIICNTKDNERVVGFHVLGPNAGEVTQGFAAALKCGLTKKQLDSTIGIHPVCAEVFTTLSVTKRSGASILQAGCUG
Procedure: Recombinant TGR, human TrxR1, B. malayi (Bm)TrxR and human GR proteins were expressed and purified as described[20],[69],[79]. The codon optimized sequence for P. falciparum (PfTrxR, https://www.ncbi.nlm.nih.gov/protein/CAA60574.1/) with an N-terminal 6-His tag was synthesized and inserted into pET15b (GenScript) and expressed in BL21 (DE3) cells and purified as described for human GR[20]. TGR and TrxR enzyme inhibition assays were performed in triplicate at 25 °C as described[20] in 0.1 M potassium phosphate (pH 7.4), 10 mM EDTA, 100 µM NADPH and 0.01% Tween-20. […] The reaction was started with addition of an equal volume of DTNB (6 mM) and NADPH (100 µM) and the increase in A412 during the first 3 min was recorded. […] The reaction was preincubated for 15 min. Activity was initiated with the addition of 1 mM GSSG and 100 μM NADPH and initial rates of NADPH oxidation were monitored at 340 nm. The reactions were done in triplicate. The IC50 was calculated in GraphPad Prism.

[2] = tested on: S. mansoni newly transformed schistosomula (NTS); assay: Schistosomicidal activity ex vivo, NTS (Cell Titer Glo); format: cell-based; settings: for LD50 ex vivo S. mansoni NTS: 24 h exposure, Cell TiterGlo; for % viability: S. mansoni NTS
Procedure: Oncomelania hupensis subsp. hupensis, Chinese strain, infected with S. japonicum, Chinese strain, and Biomphalaria glabrata, strain NMRI, infected with S. mansoni, strain NMRI, were provided by the NIAID Schistosomiasis Resource Center for distribution through BEI Resources, NIAID, NIH. After infections were patent, snails were exposed to bright light for 1 hr to obtain cercariae. Cercariae were mechanically transformed to schistosomula. Briefly, cercariae were placed on ice for 30 min and then centrifuged at 350 × g for 10 mins. The supernatant was decanted and 2 ml of serum-free M199 medium was added to cercarial pellets and vortexed for 1 min until cercarial tails were detached. NTS were purified by layering on 4 °C Percoll gradient suspension containing Eagle’s minimum essential medium, penicillin-streptomycin (10,000 U per ml penicillin/10,000 U per ml streptomycin), and 1 M HEPES in 0.85% NaCl with cercariae suspension and centrifuged at 500 × g for 15 min. Cercarial pellets were resuspended and washed thrice in serum-free M199 medium and collected at 100 × g for 5 min. NTS (240) were transferred to U-bottom 96 well assay plates containing 200 µl of M199 medium supplemented with 5.5 mM D-glucose, penicillin-streptomycin and 5% heat inactivated fetal bovine serum and incubated at 37 °C in a 5% CO2 incubator overnight.
DMSO formulated compounds were diluted with phenol red free M199 medium or RPMI medium for NTS or juvenile and adult worms, respectively, at <1% DMSO final concentrations. NTS, juvenile and adult worms from overnight cultures were tested against compounds in triplicate. Controls were treated with DMSO alone or 5 µM AF as a positive control in appropriate medium. Worm viability was assessed at 24 or 72 h by measuring ATP content of worms using Cell Titer Glo Assay (Promega) as described. Schistosome viabilities in the presence of the compounds were assessed using this formula: % Viability = Averages of Test / Averages of DMSO Control x 100.

[3] = tested on: Vero cells; assay: Cytotoxicity in mammalian cells (Cell Titer Glo); format: cell-based; settings: for % viability: Vero cells
Procedure: Following overnight incubation, formulated DMSO-compound stock solutions were diluted with DMEM at <1% DMSO final concentrations. […] Vero cells treated similarly with different concentrations of PZQ, MZM and AF (Cayman Chemicals) were used as positive controls.

[4] = molecular target: T2, S. mansoni TGR (Schistosoma mansoni, UniProt Q962Y6); assay: S. mansoni TGR enzyme inhibition (DTNB reduction); format: biochemical; settings: for S. mansoni TGR inhibition (%) at 66.7 µM: 6 h preincubation (enzyme + 100 µM NADPH + compound); for % inhibition: TGR; for inhibition at 15 µM / inhibition at 30 µM / inhibition at 66.7 µM: read-out: TGR % inhibition
T2 construct: made in house
T2 sequence (Q962Y6 1-598): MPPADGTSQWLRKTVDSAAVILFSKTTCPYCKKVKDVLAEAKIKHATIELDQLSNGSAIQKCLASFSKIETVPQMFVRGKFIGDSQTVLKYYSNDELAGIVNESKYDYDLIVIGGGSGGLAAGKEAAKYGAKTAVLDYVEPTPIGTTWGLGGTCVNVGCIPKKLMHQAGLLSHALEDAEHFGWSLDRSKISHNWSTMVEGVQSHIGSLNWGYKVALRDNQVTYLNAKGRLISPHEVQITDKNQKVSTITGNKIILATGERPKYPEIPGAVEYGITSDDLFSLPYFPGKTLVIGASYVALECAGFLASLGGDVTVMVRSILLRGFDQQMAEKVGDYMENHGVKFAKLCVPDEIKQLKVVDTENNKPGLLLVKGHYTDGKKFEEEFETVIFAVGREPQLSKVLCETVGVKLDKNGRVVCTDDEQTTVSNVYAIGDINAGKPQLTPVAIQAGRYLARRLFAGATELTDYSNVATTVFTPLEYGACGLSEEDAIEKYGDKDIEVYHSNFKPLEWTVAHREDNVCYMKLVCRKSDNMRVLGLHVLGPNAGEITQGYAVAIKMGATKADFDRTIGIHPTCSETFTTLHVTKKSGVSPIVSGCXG

[5] = 15 minutes pre-incubation, 15 µM
[6] = 15 minutes pre-incubation, 30 µM
[7] = 15 minutes pre-incubation, 66.7 µM
[8] = 6 hours pre-incubation, 66.7 µM

For `C[C@@H]1N=C(c2ccccc2Cl)c2cc([N+](=O)[O-])ccc2NC1=O` [MZM, meclonazepam, reference compound], which “Human TrxR1 IC50 (µM) or inhibition (%) at 66.7 µM: inhibition” value ([1]; 66.7 µM, 6 h preincubation) is on record?
Its value is “n.i.^e”.

And the “LD50 ex vivo S. mansoni NTS” value [2]?
Its value is 13.7 ± 0.87 µM.

And the viability at 0.5 µM ([2]; Schistosoma mansoni)?
Its viability at 0.5 µM is 93.3%.

And the viability at 1 µM ([2]; Schistosoma mansoni)?
The viability at 1 µM was 87.2%.

And the viability at 5 µM ([2]; Schistosoma mansoni)?
Its viability at 5 µM is 64.8%.

What about the viability at 10 µM ([2]; Schistosoma mansoni) of the same compound?
The viability at 10 µM was 57.8%.

What about the viability at 20 µM ([2]; Schistosoma mansoni) of the same compound?
Its viability at 20 µM is 43.9%.

And the viability at 30 µM ([2]; Schistosoma mansoni)?
Its viability at 30 µM is 35.2%.

What about the “LD50 ex vivo VERO” value ([3]; 24-hour exposure) of the same compound?
Its value is >50^a µM.

What about the “S. mansoni TGR inhibition (%) at 66.7 µM” value [4] of the same compound?
The value was “n.i.^e”.

Which results are given for `Cc1oc(-c2ccc3ccccc3c2)nc1CNC1CCCCCC1` [C5]?
% inhibition ([1]; compound 15 µM): 4.223%; % inhibition ([1]; compound 30 µM): 2.584%; % inhibition ([1]; compound 66.7 µM): 4.769%; % viability ([2]; Conc. 1 µM): 80.9812%; % viability ([2]; Conc. 5 µM): 52.5668%; % viability ([2]; Conc. 15 µM): 62.9498%; % viability ([2]; Conc. 35 µM): 0.09782%; % viability ([2]; Conc. 50 µM): 0.07949%; % viability ([3]; Conc. 5 µM): 99.0699%; % viability ([3]; Conc. 10 µM): 99.036%; % viability ([3]; Conc. 25 µM): 93.1095%; % viability ([3]; Conc. 35 µM): 87.9829%; % viability ([3]; Conc. 50 µM): 82.6807%; % inhibition ([4]; 15 minutes pre-incubation, compound 15 µM): 26.4295%; % inhibition ([4]; 15 minutes pre-incubation, compound 30 µM): 32.2766%; % inhibition ([4]; 15 minutes pre-incubation, compound 66.7 µM): 38.9031%; % inhibition ([4]; 6 hours pre-incubation, compound 15 µM): 38.3649%; % inhibition ([4]; 6 hours pre-incubation, compound 30 µM): 50.2366%; % inhibition ([4]; 6 hours pre-incubation, compound 66.7 µM): 73.0458%

How did the “LD50 ex vivo S. mansoni NTS” value [2] turn out when `C[C@@H]1[C@H]2C[C@@H](C[C@H]1NCc1cc(-c3ccccc3)[nH]n1)C2(C)C` [Compound 11] was run?
Its value is >50^a µM.

And the “S. mansoni TGR IC50” value ([4]; 15 min preincubation (enzyme + 100 µM NADPH + compound))?
The value was “n.i.^e”.

And the inhibition at 15 µM [4, 5]?
The inhibition at 15 µM was -0.793%.

And the inhibition at 30 µM [4, 6]?
Its inhibition at 30 µM is 0.411%.

What about the inhibition at 66.7 µM [4, 7] of the same compound?
The inhibition at 66.7 µM was 1.81%.

And the inhibition at 15 µM ([4]; 6 hours pre-incubation, 15 µM)?
The inhibition at 15 µM was 0.749%.

And the inhibition at 30 µM ([4]; 6 hours pre-incubation, 30 µM)?
Its inhibition at 30 µM is 1.2%.

And the inhibition at 66.7 µM [4, 8]?
Its inhibition at 66.7 µM is 5.65%.

And the “S. mansoni TGR inhibition (%) at 66.7 µM” value [4]?
The value was “n.i.^e”.

Which hsTrxR % inhibition ([1]; 15 µM) does the source give for `C[C@@H]1[C@H]2C[C@@H](C[C@H]1NCc1nc3ccccc3n1C)C2(C)C` [C12] here?
The hsTrxR % inhibition was 0.08203%.

What about the hsTrxR % inhibition ([1]; 30 µM) of the same compound?
Its hsTrxR % inhibition is 0.1317%.

And the hsTrxR % inhibition ([1]; 66.7 µM)?
The hsTrxR % inhibition was 0.4216%.

And the “% viability” value ([2]; 5 µM, relative to Worm + M199 control)?
The value was 95.6217%.

And the “% viability” value ([2]; 15 µM, relative to Worm + M199 control)?
The value was 91.9573%.

And the “% viability” value ([2]; 30 µM, relative to Worm + M199 control)?
Its value is 88.4326%.

What about the “% viability” value ([2]; 50 µM, relative to Worm + M199 control) of the same compound?
Its value is 85.8655%.

And the TGR % inhibition [4, 5]?
The TGR % inhibition was 0.03253%.

And the TGR % inhibition [4, 6]?
The TGR % inhibition was 0.1888%.

And the TGR % inhibition [4, 7]?
Its TGR % inhibition is 0.4169%.

And the TGR % inhibition ([4]; 6 hours pre-incubation, 15 µM)?
The TGR % inhibition was 0.1402%.

And the TGR % inhibition ([4]; 6 hours pre-incubation, 30 µM)?
The TGR % inhibition was 1.567%.

What about the TGR % inhibition [4, 8] of the same compound?
Its TGR % inhibition is 2.052%.
